Experimental data published in PubChem BioAssay (NCI).
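All cell lines were grown in 96-well plates and treated with compound for 48 hours. GI50 marks 50% less growth. TGI denotes the concentration required for complete inhibition of growth.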

Legend:
Assay in all cases: NCI tumour cell line growth inhibition, 48 h
[1] = test system: SF-268 CNS
[2] = test system: SF-539 CNS
[3] = test system: SN12C renal
[4] = test system: K-562 leukemia
[5] = test system: SK-OV-3 ovarian
[6] = test system: NCI-H23 lung
[7] = test system: UACC-257 melanoma
[8] = test system: LOX IMVI melanoma
[9] = test system: NCI/ADR-RES ovarian
[10] = test system: MCF7 breast

SMILES	TGI [1]	TGI [2]	TGI [3]	TGI [4]	TGI [5]	TGI [6]	TGI [7]	TGI [8]	GI50 [1]	GI50 [2]	GI50 [3]	GI50 [4]	GI50 [8]	GI50 [7]	GI50 [9]	TGI [9]	GI50 [6]	GI50 [10]	TGI [10]	GI50 [5]
Cc1ccc2nc(/C(=C/c3ccc(/C=C(\NC(=O)c4ccccc4)c4nc5ccc(C)cc5[nH]4)c(C)c3)NC(=O)c3ccccc3)[nH]c2c1	> 100 µM	28.9 µM	30.1 µM	45.4 µM	> 100 µM	45.3 µM														
C=CCCCCC1CCC2CCC(CCCCC=C)N12 (stereo not given)	29.8 µM	30.6 µM	29.9 µM	42.1 µM			29.3 µM													
c1ccc2c(OCCSCCCCCCCCCCSCCOc3cccc4ccccc34)cccc2c1	> 100 µM	> 100 µM	> 100 µM	> 100 µM	> 100 µM	> 100 µM	> 100 µM	> 100 µM												
CN1CCC(=O)/C(=C/c2ccccc2)C1	43.2 µM	33.3 µM	28.4 µM	> 28.9 µM	35.3 µM	36.1 µM	28.2 µM	14.6 µM												
COC1C(OC(=S)Nc2ccccc2)c2ccccc2N1C(C)=O (stereo not given)		> 100 µM	> 100 µM	> 100 µM		> 100 µM	> 100 µM													
CN(C)C(=S)/N=c1\sn(C)/c(=N\C(=S)N(C)C)n1C	> 100 µM	> 100 µM	> 100 µM	> 100 µM	> 100 µM	> 100 µM	> 100 µM	> 100 µM												
CC(C)(/C=C(\C#N)C(=O)N1CCC[C@@H](n2nc(-c3ccc(Oc4ccccc4)cc3F)c3c(N)ncnc32)C1)N1CCN(C2COC2)CC1	21.8 µM	19 µM	16.2 µM	> 100 µM		30.9 µM	20.4 µM	15.2 µM	5.37 µM	5.95 µM	4.3 µM	7.49 µM	3.37 µM	5.58 µM	14.7 µM	43.7 µM	11 µM	2.57 µM	12.8 µM	
COc1cnc2c(c1)C(=O)c1c-2n(CCCNC2=NCCS2)c(=O)c2cc([N+](=O)[O-])ccc12	1.88 µM	1.05 µM					3.28 µM		< 0.01 µM	0.0359 µM				0.575 µM						
CC(C)(C)c1cc(C(P(=O)(O)O)P(=O)(O)O)cc(C(C)(C)C)c1O	> 100 µM	> 100 µM		> 100 µM	> 100 µM	> 100 µM	> 100 µM	> 100 µM												
CC12CCC(=O)C[C@H]1CCC(OC=O)C2Br (stereo not given in full)	> 100 µM	> 100 µM	> 100 µM	> 100 µM	> 100 µM	> 100 µM	> 100 µM	> 100 µM												
O=C1CCC2(c3ccc(Cl)cc3)Nc3cc(Cl)ccc3N12 (stereo not given)	25.8 µM	7.32 µM	28.6 µM	14.1 µM	40.1 µM	23.2 µM	28.7 µM	24.5 µM												
CC(C)C1=Cc2ccc3c(c2C(=O)C1=O)CCCC3(C)C	20.2 µM	11 µM	13.9 µM	> 100 µM	32 µM	29.6 µM	8.64 µM	24.7 µM												
CCOC(=O)c1nc2c(OC)nn(O)cc-2c1[N+](=O)[O-]	94.9 µM	73.3 µM	34.7 µM	36.8 µM	> 100 µM		33.5 µM	30 µM												
O=C(Nc1cccc(C(F)(F)F)c1)c1ccc(NC2=C(Cl)C(=O)N(Cc3ccc(Cl)cc3Cl)C2=O)cc1	35.5 µM	21.5 µM	32.8 µM	4.49 µM	> 100 µM		42.2 µM	3.44 µM	11 µM	8.06 µM	17.4 µM	1.83 µM	1.63 µM	15.9 µM				2.15 µM	4.71 µM	60.4 µM
COCC(OC)C(CC=C(C#N)C#N)OC (stereo not given)	> 100 µM	> 100 µM	> 100 µM	> 100 µM	> 100 µM	> 100 µM	> 100 µM	> 100 µM												
C/C(CC(=O)Nc1ccc(C)c(C)c1)=N\N(c1ccccc1)c1ccccc1	> 100 µM	> 100 µM	> 100 µM	68.9 µM	> 100 µM	> 100 µM	> 100 µM	> 100 µM												
Cc1cc2c(=O)c3ccccc3[nH]c2c(C(N)=O)c1C	> 100 µM	> 100 µM	> 100 µM	> 100 µM	> 100 µM	> 100 µM	> 100 µM	> 100 µM												
COc1ccc(OCC(=O)O)c2c1CCCC2=O	> 100 µM	> 100 µM	> 100 µM	> 100 µM	> 100 µM	> 100 µM	> 100 µM	> 100 µM												
C#CC1/C(=C\C(=O)OC)CCCC1O (stereo not given)	> 100 µM	> 100 µM	> 100 µM	> 100 µM	> 100 µM	> 100 µM	> 100 µM													
O=C(/C(=C/c1ccc(Cl)cc1)c1ccccc1)c1ccccc1	41.8 µM	31.3 µM	31.7 µM	> 100 µM	71.7 µM	40.5 µM	29 µM	29 µM												
CN(C)CCC(/C=C/c1ccccc1)=N\Nc1ccccc1	10.4 µM	4.02 µM	11.6 µM	10.5 µM	9.8 µM	13.9 µM	9.76 µM	0.454 µM												
CCOC(=O)c1ccc(/C(C)=N/NC(N)=S)cc1		> 100 µM	> 100 µM	> 100 µM	> 100 µM	> 100 µM		> 100 µM												
CN1C(=O)c2ccccc2NC(=O)C12O[C@@H]2c1ccccc1 (stereo not given in full)	> 100 µM	> 100 µM	> 100 µM			> 100 µM	> 100 µM	> 100 µM								> 100 µM			> 100 µM	
N#Cc1nn(-c2cc(=O)[nH]c3ccc(Cl)cc23)c(N)c1C#N	> 100 µM	> 100 µM	> 100 µM		> 100 µM	> 100 µM	> 100 µM	> 100 µM	> 100 µM	> 100 µM	> 100 µM		> 100 µM	> 100 µM	> 100 µM	> 100 µM	> 100 µM	82.3 µM	> 100 µM	> 100 µM
